Data on 2 molecules can be found in patent US9745288B2, “Compounds and methods for treating cancer by inhibiting the urokinase receptor” (Indiana University Research and Technology Corporation, priority 2011, dated 2017).

By IC50 is commonly meant the concentration that gives 50% inhibition.

The subject of series [1] is MDA-MB-231 cells. Briefly: Invasion assay (Boyden chamber, Matrigel). It counts as cell-based, human. The note with it: Homo sapiens. The procedure: Invasion and Migration Assays. These assays were performed using BD BioCoat Matrigel Invasion Chamber (Cat. 354480, BD Biosciences, Bedford, Mass.). The undersurface of the inserts was coated with 30 μg/mL of fibronectin (Sigma, F2006) in PBS at 4° C. overnight. The inserts were washed with PBS once. Then, 0.5 mL of serum-free medium was separately added to the upper and lower chambers to equilibrate the Matrigel invasion chambers at 37° C., 5% CO2 for 2 hours. After starvated with serumfree DMEM or 4 hours, subconfluent MDA-MB-231 cells were trypsinized and resuspended in 0.1% FBS DMEM. 5×10^4 cells in 500 μL of 0.1% FBS DMEM containing various compounds or 1.0% DMSO (as control) were added to the upper chambers. 500 μL of 10% FBS DMEM containing the same concentration of the same compound or DMSO were added to the lower chambers. We incubated the invasion chambers for 3 hours at 37° C., 5% CO2. Non-invaded cells were removed from the upper chamber with a cotton swab. The invaded cells were fixed with 100% methanol and then stained with Hematoxylin Stain Harris Modified Method (Fisher, SH30-500D). The filters were washed with water 3 times. Filters were air dried and the invaded cells were counted in ten randomly selected microscopic fields (×200 magnification). The experiment was performed in triplicate per group and shown by mean±SE.
Whether the two active compounds affected invasion, adhesion and migration in cell culture in a concentration-dependent study was tested (FIGS. 2A, 2B). For invasion, the Transwell (or Boyden) chamber assay was used.^28 The assay uses a chamber with two compartments that are separated by a microporous membrane known as Matrigel consisting of components of the ECM such as collagen, laminin and fibronectin.^28
Invasive tumor cells degrade the Matrigel and migrate through the membrane to the lower compartment. […] FIGS. 2A and 2B show the effect of representative presently disclosed compounds on MDA-MB-231 metastasis. Percent inhibition of invasion, migration, and adhesion of MDA-MB-231 by compounds that bind to uPAR.

For series [2], the system named is MDA-MB-231 cells. Description: Apoptosis assay, flow cytometry with Annexin V-FITC and PI staining. It counts as cell-based, human. The following applies: 50 μM. The procedure:
Apoptosis Assay. MDA-MB-231 cells were cultured in DMEM medium supplemented with 10% FBS, 100 IU/mL penicillin and 50 μg/mL streptomycin in a humidified atmosphere containing 5% CO2 at 37° C. and grew to 80-90% confluence in P-60 mm plates, then treated with various amounts of compounds or 1% DMSO (as control) for different time points. Collected the supernatants and washed the cells with 1×PBS twice and collected. The cells were detached by using cellstripper (Mediatech Inc, VA), and washed twice with cold 1× PBS and resuspended in 1× binding buffer (Cat. PNN1001, Invitrogen Corporation, Camarillo, Calif.) at a concentration of 1×10^6 cells/mL. Transferred 100 μL of the solution (1×10^5 cells) to a 5 mL culture tube. Added 5 μL of Recombinant Human Annexin V FITC conjugate (Cat. ANNEXINV01, Invitrogen) and 5 μL of propidium iodide solution (Cat. P4864, Sigma-Aldrich, St. Louis, Mo.). Gently vortexed the cells and incubated for 15 min at room (25° C.) in the dark. Added 400 μL of 1× binding buffer to each tube. Analyzed by flow cytometry (FACScan).
FIGS. 4A-4D show inhibition of MDA-MB-231 proliferation and mechanism of cell killing. To gain insight into the mechanism by which these compounds are inhibiting growth, a flow cytometry analysis with annexin V-FITC and PI staining was performed. The level of apoptotic cells in MDA-MB-231 was assessed by the percentage of Annexin V-positive/PI-negative cells present after exposure of MDAMB-231 cells to increasing concentration of IPR-69 for 24 h (FIG. 4B). At a concentration of 50 μM, IPR-69 induced significant apoptosis as evidenced by a 51% and 21% increase in apoptotic cells (Annexin V positive/PI-negative) and necrotic cells (Annexin V-positive/PI-positive), respectively. […] At a concentration of 50 μM, 26% of cells were necrotic (Annexin V positive/PI-positive), a 22% increase over control. 46% of cells were apoptotic (Annexin V positive/PInegative), compared with 4% of control.
(In general: In flow cytometry, cells or beads pass a laser one at a time.)

The test system of series [3] is phospho-p44/42 MAPK. Description: Immunoblot of MAPK phosphorylation in MDA-MB-231 cells. Type of series: cell-based, human. The following applies: 100 μM, 30 minutes. The procedure:
Immunoblots. MDA-MB-231 cells treated with 100 μM of compound(s)/1% DMSO for 30 min. Harvested cell lysates in RIPA buffer supplemented with protease inhibitors and phosphatase inhibitors. Under non-reducing condition equal amounts of protein were loaded per lane and separated in 4-12% NuPAGE gel (Invitrogen) at 200 V for 60 minutes, then transferred to Nitrocellulose membrane at 30 V for one hour using XCell II blot module. […] Secondary antibody: goat anti-rabbit IgG HRP 1:3000 in 5% non-fat milk-TBST at room for 1 hour. The protein bands were visualized using Immobilon Western Chemiluminescent HRP Substrate (WBKLS0100, Millipore, Billerica, Mass.). Fibronectin (Sigma, F2006) […] coated in 6-well plates overnight. MDA-MB-231serum-starved for 4 hours and then seeded in FN coated 6-well plates and treated with 5,10, 20 and 40 μM compound(s)/1% DMSO for 30 min, cells were lysated in RIPA buffer supplemented with protease inhibitors and phosphatase inhibitors. Then IB with phospho-p44/42 MAPK (Thr202/Tyr204), p44/42 MAPK; phospho-FAK (Tyr397), FAK; phospho-Src family (Tyr416), Src, respectively.
A concentration-dependent study was subsequently carried out for IPR-1 (FIG. 6B). […] The effect of the compound also was studied in two other signaling pathways including FAK and Src. FAK is constitutively associated with β-integrin subunits of integrin receptors.
(In general: In western blotting, separated proteins are transferred to a membrane and probed.)

Series [4] concerns the target CYP2C9 (Homo sapiens, UniProt P11712). Description: Fluorescence-based CYP2C9 inhibition assay. The note with it: human. Here is the method:
CYP metabolism was measured using a fluorescence-based assay designed by Cohen et al.,^41 recently implemented by Invitrogen (Carlsbad, Calif.).

Chain of CYP2C9 (P11712 whole entry): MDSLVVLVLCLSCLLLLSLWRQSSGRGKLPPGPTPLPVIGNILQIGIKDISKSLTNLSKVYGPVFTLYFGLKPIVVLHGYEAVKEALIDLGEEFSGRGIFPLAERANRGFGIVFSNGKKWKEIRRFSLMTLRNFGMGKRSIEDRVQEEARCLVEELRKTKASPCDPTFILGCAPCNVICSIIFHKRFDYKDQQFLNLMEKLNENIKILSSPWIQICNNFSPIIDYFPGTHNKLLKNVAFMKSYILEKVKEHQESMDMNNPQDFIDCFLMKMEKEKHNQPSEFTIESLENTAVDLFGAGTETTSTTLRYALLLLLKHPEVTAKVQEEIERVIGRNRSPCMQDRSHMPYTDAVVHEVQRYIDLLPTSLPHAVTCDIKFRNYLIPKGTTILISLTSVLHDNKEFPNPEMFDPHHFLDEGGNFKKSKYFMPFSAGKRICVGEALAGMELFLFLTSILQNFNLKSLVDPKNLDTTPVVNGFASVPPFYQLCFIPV

As to `CN(C)c1ccc(CNCCC(Cc2ccccc2)c2ccc3c(c2)OCO3)cc1` (racemic) [IPR-9, 4-(((3-(benzo[d][1,3]dioxol-5-yl)-4-phenylbutyl)amino)methyl)-N,Ndimethylaniline], the IC50 in series [1] was 30 µM. In addition, the “increase in necrotic cells (Annexin V-positive/PI-positive)” value in series [2] is 22%. Moreover, in series [2] (percent of cells), the “apoptotic cells (Annexin V positive/PI-negative)” value is on record as 46% and the “necrotic cells (Annexin V positive/PI-positive)” value is reported as 26%. Moreover, the “effect on MAPK phosphorylation” value in series [3] is recorded as “significant impairment”.

On to `Cc1cc(C)cc(NC(=O)c2cnn(-c3ccc(C(C)C)cc3)c2C2CCNCC2)c1` [IPR-69, N-(3,5-dimethylphenyl)-1-(4-isopropylphenyl)-5-(piperidin-4-yl)-1H-pyrazole-4-carboxamide], for which inhibition in series [1] was half-maximal at 30 µM (IC50). Besides, the “increase in necrotic cells (Annexin V-positive/PI-positive)” value in series [2] was 21%. The “increase in apoptotic cells (Annexin V positive/PI-negative)” value in series [2] (24 h) is recorded as 51%. Moreover, in series [3], the “effect on MAPK phosphorylation” value is listed as “abrogated phosphorylation, but the effects were weaker than IPR-9”. In addition, in series [4], the “inhibition of CYP2C9” value was “little inhibition of CYP2C9”.
